Assay results taken from the CheMixHub viscosity set.

Assay: xn = mol fraction of the nth substance listed

Cc1cccc(C)c1 + CCOC(C)=O
viscosity [mPa·s], 101 kPa
Conditions	298.15 K	308.15 K
x2 = 0.048	0.568	0.515
x2 = 0.1498	0.541	0.492
x2 = 0.2498	0.518	0.472
x2 = 0.3493	0.498	0.454
x2 = 0.4469	0.481	0.439
x2 = 0.4972	0.473	0.432
x2 = 0.5494	0.466	0.425
x2 = 0.6495	0.454	0.414
x2 = 0.7511	0.444	0.404
x2 = 0.8509	0.436	0.396
x2 = 0.9461	0.43	0.39

Cc1ccccc1N + ClC(Cl)(Cl)Cl
viscosity [mPa·s], 100 kPa
Conditions	x2 = 0.0901	x2 = 0.1916	x2 = 0.2917	x2 = 0.3903	x2 = 0.4988	x2 = 0.6089	x2 = 0.6981	x2 = 0.7941	x2 = 0.8847
298.15 K	3.473	3.194	2.917	2.642	2.337	2.026	1.772	1.497	1.235
303.15 K	3.049	2.812	2.575	2.34	2.079	1.812	1.593	1.356	1.13
308.15 K	2.65	2.452	2.254	2.056	1.836	1.611	1.426	1.224	1.032
313.15 K	2.34	2.172	2.003	1.834	1.646	1.452	1.292	1.118	0.951
318.15 K	2.033	1.895	1.755	1.616	1.459	1.296	1.162	1.016	0.874

CCC(C)O (stereo unspecified) + O
Conditions	viscosity [mPa·s]
293.15 K, 100 kPa, x1 = 0.58	3.807
296 K, 101 kPa, x2 = 0.1	3.008
296 K, 101 kPa, x2 = 0.68	3.67
297 K, 101 kPa, x2 = 0.3	2.923
297 K, 101 kPa, x2 = 0.4	3.074
297 K, 101 kPa, x2 = 0.5	3.242
297 K, 101 kPa, x2 = 0.6	3.416
303 K, 101 kPa, x1 = 0.01	0.9465
303 K, 101 kPa, x2 = 0.1	2.363
303 K, 101 kPa, x2 = 0.3	2.38
303 K, 101 kPa, x2 = 0.4	2.495
303 K, 101 kPa, x2 = 0.5	2.625
303 K, 101 kPa, x2 = 0.6	2.759
303 K, 101 kPa, x2 = 0.68	2.853
303 K, 101 kPa, x2 = 0.98	1.103
304 K, 101 kPa, x2 = 0.97	1.229
305 K, 101 kPa, x2 = 0.2	2.185
313 K, 101 kPa, x1 = 0.01	0.7564
313 K, 101 kPa, x2 = 0.1	1.715
313 K, 101 kPa, x2 = 0.2	1.702
313 K, 101 kPa, x2 = 0.3	1.739
313 K, 101 kPa, x2 = 0.4	1.815
313 K, 101 kPa, x2 = 0.5	1.903
313 K, 101 kPa, x2 = 0.6	1.993
313 K, 101 kPa, x2 = 0.68	2.06
313 K, 101 kPa, x2 = 0.97	0.97
313 K, 101 kPa, x2 = 0.98	0.8638
323 K, 101 kPa, x1 = 0.01	0.622
323 K, 101 kPa, x2 = 0.1	1.28
323 K, 101 kPa, x2 = 0.2	1.28
323 K, 101 kPa, x2 = 0.3	1.312
323 K, 101 kPa, x2 = 0.4	1.364
323 K, 101 kPa, x2 = 0.5	1.427
323 K, 101 kPa, x2 = 0.6	1.492
323 K, 101 kPa, x2 = 0.68	1.541
323 K, 101 kPa, x2 = 0.97	0.773
323 K, 101 kPa, x2 = 0.98	0.6986
323.15 K, 100 kPa, x1 = 0.02	1.324
323.15 K, 100 kPa, x1 = 0.58	1.517

Nc1ccccc1Cl + CC(C)CO
viscosity [mPa·s], 101 kPa
Conditions	x1 = 0.0805	x1 = 0.1856	x1 = 0.2856	x1 = 0.3751	x1 = 0.4789	x1 = 0.5761	x1 = 0.6805	x1 = 0.7859	x1 = 0.8952
303.15 K	2.81	3	3.16	3.29	3.42	3.53	3.63	3.71	3.78
308.15 K	2.46	2.66	2.81	2.92	3.05	3.15	3.25	3.33	3.39
313.15 K	2.16	2.35	2.5	2.61	2.73	2.83	2.93	2.99	3.01
318.15 K	1.9	2.08	2.23	2.33	2.45	2.55	2.65	2.73	2.78

CCCCn1cc[n+](C)c1.F[B-](F)(F)F + O
101 kPa
Conditions	viscosity [mPa·s]
298.15 K, x2 = 0.1036	80.9
298.15 K, x2 = 0.6979	9.53
308.15 K, x2 = 0.6004	8.69
313.15 K, x2 = 0.5014	8.98
318.15 K, x2 = 0.4001	9.72
318.15 K, x2 = 0.5014	7.77
323.15 K, x2 = 0.4001	8.41

C1CC[NH2+]C1.CCCCCCCC(=O)[O-] + CCO
viscosity [mPa·s], 101 kPa
Conditions	x1 = 0.1638	x1 = 0.3038	x1 = 0.4308	x1 = 0.5046	x1 = 0.5837	x1 = 0.7453	x1 = 0.838	x1 = 0.9223
293.15 K	3.7	8.2	14	17.06	23.1	36.6	47.3	58.2
298.15 K	3.85	7.02	12.99	16.3	21.3	34.08	44.23	52.4
303.15 K	3	5.7	10.5	13.39	17.6	29.14	36.3	42.7
308.15 K	2.9	7.3	11.21	14.5	18.1	25.4	31.3	36.4
313.15 K	2.7	6.8	9.8	11.79	15	22	26.8	30.3

NCCCO + CC(C)O
Conditions	viscosity [mPa·s]
293.15 K, 101 kPa, x1 = 0.7002	19.25

Cc1ccc(O)cc1 + C1CCCCC1
viscosity [mPa·s]
Conditions	101 kPa	101.33 kPa
303.15 K, x2 = 0.1014	7.352	7.352
303.15 K, x2 = 0.1683	5.44	5.44
303.15 K, x2 = 0.3021	4.004	4.004
303.15 K, x2 = 0.3949	2.988	2.988
303.15 K, x2 = 0.5007	2.25	2.25
303.15 K, x2 = 0.6007	1.732	1.732
303.15 K, x2 = 0.7004	1.35	1.35
303.15 K, x2 = 0.7973	1.11	1.1
303.15 K, x2 = 0.8999	0.909	0.909
308.15 K, x1 = 0.0725	0.8571	–
308.15 K, x1 = 0.2007	1.086	–
308.15 K, x1 = 0.3167	1.393	–
308.15 K, x1 = 0.3977	1.673	–
308.15 K, x1 = 0.5218	2.252	–
308.15 K, x1 = 0.6527	3.175	–
308.15 K, x1 = 0.7637	4.421	–
308.15 K, x1 = 0.8681	6.119	–
308.15 K, x1 = 0.9441	7.786	–

CCC(C)O (stereo unspecified) + c1ccccc1
303 K, 101.3 kPa
Conditions	viscosity [mPa·s]
x2 = 0.1032	1.95
x2 = 0.2077	1.52
x2 = 0.3084	1.204
x2 = 0.4086	0.9692
x2 = 0.511	0.8012
x2 = 0.5989	0.6995
x2 = 0.7027	0.6211
x2 = 0.7981	0.5854
x2 = 0.8973	0.5709
